Experimental data reported in ChEMBL document CHEMBL1130664, “Syntheses and antitumor activity of cis-restricted combretastatins: 5-membered heterocyclic analogues” (Bioorg Med Chem Lett, 1998).

Tests used:
[1] = tested on: Colon 26; experiment: […] activity evaluated as tumor suppression against colon 26 murine tumor model at a dose 40 mg/kg after intravenous administration; format: functional, Mus musculus
[2] = molecular target: Tubulin (Bos taurus, UniProt Q6B856+Q862L2+Q862F3); experiment: Tubulin polymerization inhibitory activity using bovine brain tubulin; format: functional
[3] = tested on: Colon 26; experiment: In vitro cytotoxicity against colon 26 adenocarcinoma cell line was evaluated.; format: functional, cell-based; conditions: Mus musculus
[4] = tested on: Colon 26; experiment: […] activity evaluated as tumor suppression against colon 26 murine tumor model at a dose 160 mg/kg after intravenous administration; format: functional, Mus musculus
[5] = tested on: Colon 26; experiment: […] activity evaluated as tumor suppression against colon 26 murine tumor model at a dose 20 mg/kg after intravenous administration; format: functional, Mus musculus
[6] = tested on: Colon 26; experiment: […] activity evaluated as tumor suppression against colon 26 murine tumor model at a dose 80 mg/kg after intravenous administration; format: functional, Mus musculus
[7] = tested on: Colon 26; experiment: […] activity evaluated as tumor suppression against colon 26 murine tumor model at a dose 5 mg/kg after intravenous administration; format: functional, organism-based; design: dose 5 mg/kg; conditions: Mus musculus
[8] = tested on: Colon 26; experiment: […] activity evaluated as tumor suppression against colon 26 murine tumor model at a dose 160 mg/kg after subcutaneous administration; format: functional, Mus musculus

| Compound | IC50 [2] [nM] | IC50 [3] [nM] | further results |
| --- | --- | --- | --- |
| COc1ccc(-c2sc(N)nc2-c2cc(OC)c(OC)c(OC)c2)cc1N | 1000 | 57.5 | IR [1]: 75% |
| COc1ccc(-c2scnc2-c2cc(OC)c(OC)c(OC)c2)cc1N | 3000 | 14.5 | IR [4]: 66% |
| COc1ccc(-c2nnc(C)n2-c2cc(OC)c(OC)c(OC)c2)cc1N | > 10000 | > 3000 |  |
| COc1ccc(-c2c[nH]nc2-c2cc(OC)c(OC)c(OC)c2)cc1N | 3000 | 8.4 | IR [5]: 0% |
| COc1ccc(/C=C\c2cc(OC)c(OC)c(OC)c2)cc1N.Cl |  | 2.8 | IR [1]: 73% |
| COc1ccc(-c2sc(NN)nc2-c2cc(OC)c(OC)c(OC)c2)cc1N | 3000 | 21.1 | IR [6]: 55% |
| COc1ccc(-c2c([Si](C)(C)C)n[nH]c2-c2cc(OC)c(OC)c(OC)c2)cc1N | > 10000 | > 3000 |  |
| COc1ccc(-c2nnc(N)n2-c2cc(OC)c(OC)c(OC)c2)cc1N | > 10000 | > 3000 |  |
| COc1ccc(-c2nnc(O)n2-c2cc(OC)c(OC)c(OC)c2)cc1N | > 10000 | > 3000 |  |
| CISPLATIN |  |  | IR [7]: 64% |
| COc1ccc(-c2nnnn2-c2cc(OC)c(OC)c(OC)c2)cc1N | 2000 | 7.2 | IR [8]: 89% |
| COc1ccc(-c2sc(C)nc2-c2cc(OC)c(OC)c(OC)c2)cc1N | 2000 | 2040 | IR [1]: 24% |
| COc1ccc(-c2nncn2-c2cc(OC)c(OC)c(OC)c2)cc1N | 4000 | 840 | IR [4]: 47% |
